In US11744808B2, “Compositions and methods for treating non-alcoholic steatohepatitis” (ALGERNON PHARMACEUTICALS INC., priority 2018, dated 2023):

Experiments:
[1] = test system: murine STAM™ model of NASH-HCC; test: Murine STAM model of NASH-HCC, second study (Example 2): H&E NAFLD activity scoring and Sirius red fibrosis area; assay type: in vivo, C57BL/6 mice; conditions: for NAFLD Activity Scores, hepatic steatosis, lobular inflammation and hepatocellular ballooning (conclusion): Bromantane at 40 mg/kg, Cenicriviroc at 30 mg/kg
Description: As before, male newborn C57BL/6 mice were used. All mice were born from pathogen-free 14 day-pregnant mice obtained from Japan SLC, Inc. (Hamamatsu, Japan) prior to the start of the study.
(§1) The murine STAM™ model of NASH-HCC was performed according to previously described methods known in the art (Takakura et al, Characterization of non-alcoholic steatohepatitis, Anticancer Res, 34(9):4849-55 (2014); Fujii et al, (2013)). NASH was induced in male mice by a single subcutaneous injection of 200 μg of streptozotocin (STZ, Sigma, Mo., USA) at 2 days after birth and continuous feeding after 4 weeks of age (day 28±2) with a high fat diet (CLEA Japan Inc, Tokyo, Japan) given ad libitum.
Following induction of NASH, the mice were randomized into 7 individual study groups of 8 mice each at 6 weeks of age (day 42±2) based on their body weight, the day before the start of treatment.
One day following randomization, the mice were administered a once-daily oral treatment from 6 weeks of age plus one day (day 43±2, treatment Day 1) to 9 weeks of age. The mice in 6 of the 7 study groups were treated individually with a therapeutic amount of a pharmacologic compound formulated with a pharmaceutically acceptable vehicle. […] The pharmaceutically acceptable vehicle in all groups was 0.5% CMC. […] Individual body weight was measured daily during the treatment period. Survival, clinical signs and behavior of mice were also monitored daily.
In each case, a volume of 10 mL/kg of 0.5% CMC was administered orally with (or without) the active ingredient as noted in Table 3 from 6 to 9 weeks of age. All mice were then sacrificed at 9 weeks of age. Blood samples were collected from all mice and the liver from each mouse was removed for analysis.
(§2) Assessment of Steatohepatitis: Liver cross-sections were subjected to hematoxylin and eosin (H&E) staining using standard techniques for histological assessment of hepatic steatosis, lobular inflammation and hepatocellular ballooning. The level of steatohepatitis severity in each liver cross-section was indicated by NAFLD Activity Scores of: 0 (normal), 1-2 (NAFLD), 3-4 (borderline) or at least 5 (NASH) in 3 randomly selected fields of H&E-stained liver cross-sections of 4 μm thickness at ×50 magnification for evaluation of steatosis and ×200 magnification each for evaluation of inflammation and evaluation of ballooning. The NAFLD Activity Score is the unweighted sum of the following: 1) hepatic steatosis score (0-3); 2) lobular inflammation score ([…]); 3) hepatocellular ballooning score (0-2).
The liver cross-sections of the treated groups were also subjected to Sirius-red staining using standard techniques for histological estimation of the percentage of fibrosis area. For quantitative analysis of fibrosis area, bright field images of Sirius red-stained sections were captured around the central vein using a digital camera (DFC295; Leica, Germany) at 200-fold magnification, and the positive areas in 5 fields/section were measured using ImageJ software (National Institute of Health, USA).
(§3) Values are arithmetic means. Comparison between the study group and positive control group was performed using a two-tailed, heteroscedastic (two-sample unequal variance) Student's T-Test. A P-value of <0.05 was considered statistically significant following a Bonferroni post-hoc statistical correction analysis for multiple groups (Bonferroni Multiple Comparison Test). In this case, the correction factor was 7, corresponding to the number of study groups. Following the usual convention, the P-value classification and statistical significance levels chosen are shown in Table 2 (above) alongside their corresponding classification scores.

[2] = test system: murine STAM™ model of NASH-HCC; test: Murine STAM model of NASH-HCC, first study (Example 1): H&E NAFLD activity scoring and Sirius red fibrosis area; assay type: in vivo, C57BL/6 mice; conditions: for hepatocellular ballooning score relative to Vehicle control / NAFLD activity score relative to Vehicle control / fibrosis area (Sirius red-positive area) compared with the Vehicle group: once daily oral, 6 to 9 weeks of age, Bromantane 20 mg/kg, Istradefylline 18 mg/kg; for hepatocellular ballooning score relative to Vehicle control: Irsogladine 1 mg/kg; for NAFLD activity score relative to Vehicle control / fibrosis area (Sirius red-positive area) compared with the Vehicle group: Telmisartan 10 mg/kg
Description: Male newborn C57BL/6 mice were used. All mice were born from pathogen-free 14 day-pregnant mice obtained from Japan SLC, Inc. (Hamamatsu, Japan) prior to the start of the study.
as §1
Following induction of NASH, the mice were randomized into 12 individual study groups of 8 mice each at 6 weeks of age (day 42±2) based on body weight, the day before the start of treatment.
One day following randomization, the mice were administered a once-daily oral treatment from 6 weeks of age plus one day (day 43±2, treatment Day 1) to 9 weeks of age (hereinafter known as the “treatment period”). The mice in 11 of the 12 study groups (hereafter known as “treatment groups”) were treated individually with a distinct pharmacologic compound formulated with a pharmaceutically acceptable vehicle. […] The pharmaceutically acceptable vehicle in all groups was 0.5% carboxymethyl cellulose (CMC). […] Individual body weight was measured daily during the treatment period. Survival, clinical signs and behavior of mice were also monitored daily.
In each case, a volume of 10 mL/kg of 0.5% CMC was administered orally with (or without) the active ingredient as noted in Table 1 from 6 to 9 weeks of age until sacrifice. One exception being Trapadil, which was administered orally with one dosing of 120 mg/kg on Day 0 and then at the daily dose of 60 mg/kg starting on treatment Day 1. All mice were then sacrificed at 9 weeks of age. Blood samples were collected from all mice and the liver from each mouse was removed for analysis.
as §2
For quantitative analysis of fibrosis area, bright field images of Sirius red-stained sections were captured around the central vein using a digital camera (DFC295; Leica, Germany) at 200-fold magnification, and the positive areas in 5 fields/section were measured using ImageJ software (National Institute of Health, USA).
as §3, with “12,” for “7,”, “2” for “2 (above)”

[3] = once daily oral, 6 to 9 weeks of age, Bromantane high 40 mg/kg, Bemithyl 200 mg/kg, Cenicriviroc 30 mg/kg, Telmisartan 10 mg/kg
[4] = once daily oral, 6 to 9 weeks of age, Bromantane high 40 mg/kg, Cenicriviroc 30 mg/kg, Bemithyl 200 mg/kg, Telmisartan 10 mg/kg

SMILES	fibrosis area (Sirius red-positive area) compared with the Vehicle group [1, 3]	NAFLD activity score relative to Vehicle control [1, 4]	NAFLD Activity Scores, hepatic steatosis, lobular inflammation and hepatocellular ballooning (conclusion) [1]	steatosis score relative to Vehicle control ([1]; once daily oral, 6 to 9 weeks of age, Bromantane high 40 mg/kg, Telmisartan 10 mg/kg)	fibrosis area (Sirius red-positive area) compared with the Vehicle group ([1]; once daily oral, 6 to 9 weeks of age, Bromantane low 20 mg/kg)	hepatocellular ballooning score relative to Vehicle control [2]	NAFLD activity score relative to Vehicle control [2]	fibrosis area (Sirius red-positive area) compared with the Vehicle group [2]	NAFLD Activity Scores, hepatic steatosis, lobular inflammation and hepatocellular ballooning (conclusion) ([2]; Istradefylline at 18 mg/kg, Telmisartan at 10 mg/kg oral, compared to the Vehicle group)
CCSc1nc2ccccc2[nH]1 [Bemithyl, 2-Ethylsulfanyl-1H-benzoimidazole]	particularly statistically significant decrease	statistically significant and clinically relevant composite reduction	–	–	–	–	–	–	–
Brc1ccc(NC2C3CC4CC(C3)CC2C4)cc1 (stereo not drawn) [Bromantane, N-(4-Bromophenyl)adamantan-2-amine]	statistically significant decreases	Statistically significant reductions	showed improvement	Statistically significant reductions	statistically significant decreases	Statistically significant reductions	Statistically significant reductions	significant decreases	–
CCCCOCCOc1ccc(-c2ccc3c(c2)/C=C(/C(=O)Nc2ccc([S@@+]([O-])Cc4cncn4CCC)cc2)CCCN3CC(C)C)cc1 [Cenicriviroc]	statistically significant decreases	Statistically significant reductions	showed improvement	–	–	–	–	–	–
Nc1nc(N)nc(-c2cc(Cl)ccc2Cl)n1 [Irsogladine, 6-(2,5-Dichlorophenyl)-1,3,5-triazine-2,4-diamine]	–	–	–	–	–	Statistically significant reductions	–	–	–
CCn1c(=O)c2c(nc(/C=C/c3ccc(OC)c(OC)c3)n2C)n(CC)c1=O [Istradefylline, 8-[(E)-2-(3,4-dimethoxyphenyl)vinyl]-1,3-diethyl-7-methyl-3,7-dihydro-1H-purine-2,6-dione]	–	–	–	–	–	Statistically significant reductions	Statistically significant reductions	significant decreases	showed improvement
